Measurements published in patent publication US20250195496A1, “AVPR1A BLOCKADE TO REDUCE SOCIAL ISOLATION-INDUCED ANXIETY IN FEMALES” (THE TRUSTEES OF COLUMBIA UNIVERSITY IN THE CITY OF NEW YORK, priority 2022, published 2025).
“Also recorded” adds a separate entry of the source. Bridge positions count the residues as written; N and C are the ends. Ends that are not written are not given here.

What was measured:
[1] = system: WT mice; assay: Marble burying assay after i.p. antagonist injection; format: in vivo, mouse; details: 2 mg/kg
Procedure: Chronic social Isolation: Mice were singly housed at 5 weeks of age for 7 weeks in standard cages. Control groups included mice isolated at 8 weeks of age for 2 weeks, or at 8 weeks of age for 7 weeks. An additional control group included mice socially isolated at 8 weeks of age for 7 weeks and regrouped at 15 weeks for 3 weeks.
All behavioral assays were performed after lights out (7 pm).
Marble burying: Standard cages were filled with fresh bedding to a depth of 2.5 in and 15 marbles were evenly spaced across the bedding. […] At the end of the assay, the number of marbles buried was estimated visually. A marble was considered buried if at least ¾ of its surface was covered by the bedding.
Peripheral antagonist injections: Injections of SRX246 (AVPR1A antagonist, 2 mg/kg, i.p.), SR49059 (AVPR1A antagonist, 2 mg/kg, i.p.), SSR149415 (AVPR1B antagonist, 2 mg/kg, i.p.), d(CH2)5Tyr(Me)-[Orn8]-vasotocin (Oxytocin receptor antagonist, 2 mg/kg, i.p.), or 1% DMSO (Sigma Aldrich, i.p.) were performed in WT adults.

[2] = system: AVPR1A^CeA neurons; assay: Chemogenetic activation of AVPR1A^CeA neurons by CNO (cFos smFISH); format: in vivo, mouse; details: Avpr1a-Cre mice injected with the DREADD-Gq virus; single injection 1.5 mg/kg, i.p.
From the text: (A) Heat map for the expression of the 300 top genes at […], 7, 13 and 22 weeks of age (n=3). […] (D) Vgat and AVPR1A expression detected with smFISH in a coronal section of the CeA at bregma-1.34 mm. (E) Quantification of AVPR1A^CeA neurons. (F) AVPR1A-Cre::tdTomato reporter expression in a coronal section of the CeA at bregma-1.34 mm. (G-L) Chemogenetic activation of AVPR1A^CeA neurons. (G) Schematic of bilateral injections of AAV-DIO-DREADD-Gq-mCherry (closed circles) vs. AAV-DIO-mCherry controls (open circles) in the CeA of Avpr1a-Cre adult mice. (H) Expression of the viral mCherry reporter in the CeA. High-magnification image showing Avpr1a and cFos expression detected with smFISH 1 h after CNO injections in mice injected with control (lower panel) and DREADD-Gq-mCherry (upper panel) AAVs. (I-L) Effects of CNO injections on marble burying (I), time spent in the open arms of the EPM (J), time spent in the center of the open field (K), and distance traveled in the open field (L) in mice injected with control and DREADD-Gq AAVs (n=6-9). Data are presented as means+/−SEM in E.
We utilized a chemogenetic approach to overcome this technical issue that prevented direct comparisons of males and females. […]

[3] = system: central AVPR1A circuits; assay: Food intake following amygdala injection of AVP; format: in vivo, mouse
[4] = system: male rats; details: males; AVP delivered into the CeA (Hernandez et al., 2016; Hernandez-Perez et al., 2018); cited from earlier work
[5] = system: WT and Avpr1a-/- females; assay: Marble burying after bilateral intra-CeA AVP injection; format: in vivo, mouse; details: 1 ng AVP bilateral
Procedure: For cannulations, ophthalmic ointment and analgesics were administered (buprenorphine, 0.1 mg/kg or buprenorphine Ethiqa XR, 3.25 mg/kg, and carprofen, 5 mg/kg, subcutaneous). Two cannulas (Model C317GS, Plastics One) were placed by drilling holes at the following coordinates: +/−2.4 mm lateral, −1.4 mm anteroposterior and −4.6 mm ventral from Bregma. Implants were secured by dental cement and protected with a cap (Model C317DCS, Plastics One).
Marble burying: Standard cages were filled with fresh bedding to a depth of 2.5 in and 15 marbles were evenly spaced across the bedding. Animals were placed in the cage for 30 min and allowed to ambulate freely. At the end of the assay, the number of marbles buried was estimated visually. A marble was considered buried if at least ¾ of its surface was covered by the bedding.
Intra-amygdala AVP injections: Prior to marble burying, adult WT and Avpr1a^−/− females were bilaterally injected with 1 ng of AVP or 0.9% saline via in-dwelling cannulas using a Hamilton syringe (Hamilton 7635-01) connected to an injector (Model C317IS, Plastics One).

Question: For `COc1ccc(S(=O)(=O)N2C(=O)[C@@](c3ccccc3OC)(N3C[C@H](O)C[C@H]3C(=O)N(C)C)c3cc(Cl)ccc32)c(OC)c1` [AVPR1B antagonist], which “marble burying (15 min)” value ([1]; female mice exposed to CSIS) is on record?
Answer: did not affect behavior in females or males

Question: And the “marble burying (15 min)” value ([1]; male mice exposed to CSIS)?
Answer: did not affect behavior in females or males

Question: For `C[N+]1([O-])CCN(C2=Nc3cc(Cl)ccc3Nc3ccccc32)CC1` [CNO, clozapine-N-oxide], which “activation of AVPR1A^CeA neurons” value [2] is on record?
Answer: acutely activated AVPR1A^CeA neurons

Question: For `COc1ccc(S(=O)(=O)N2c3ccc(Cl)cc3[C@](O)(c3ccccc3Cl)[C@@H]2C(=O)N2CCC[C@H]2C(N)=O)cc1OC` [SR49059], which “food intake: blockade of the anorexigenic effects of AVP” value ([3]; AVP (0.3 ng) injected in the amygdala, peripheral injection of antagonist (Manning compound; SR49059 2 mg/kg)) is on record?
Answer: does not restore food intake

Question: What about the marble burying ([1]; female WT mice exposed to >7 weeks CSIS starting at 5 or 8 weeks of age) of the same compound?
Answer: had no effect

Question: What about the marble burying ([1]; male WT mice exposed to >7 weeks CSIS starting at 5 or 8 weeks of age) of the same compound?
Answer: had no effect

Question: Which results are given for “AVP: AVP (vasopressin), the AVPR1A ligand, injected into the amygdala/CeA (CYFQNCPRG-NH2; disulfide 1-6; UniProt P01185 20-28, looked up)”?
Answer: effect on food intake ([3]; AVP 0.3 ng injected in the amygdala): anorexigenic effects; anxiety-related behaviors [4]: can induce anxiety-like behaviors in males; also recorded: increase anxiety-related behaviors in males; also recorded: elicited anxiety-related behaviors; marble burying / anxiety behavior ([5]; global knockout Avpr1a-/- females): had no effect; marble burying / anxiety behavior ([5]; group housed WT females): trigger anxiety behavior in WT females; also recorded: increased marble burying

Question: With “d(CH2)5Tyr(Me)-[Orn8]-vasotocin [OXR antagonist]” as the compound, how does the “marble burying (15 min)” value ([1]; female mice exposed to CSIS) read?
Answer: did not affect behavior in females or males

Question: What about the “marble burying (15 min)” value ([1]; male mice exposed to CSIS) of the same compound?
Answer: did not affect behavior in females or males
